In experiment [1] the test system is Bacillus subtilis ATCC 6633. Nature of the experiment: Agar-plate disc-diffusion test. To be noted: 1 mg/ml, 7mm disc. A general note: Agar diffusion results depend on both activity and mobility in agar.
Method: ^a Compounds were suspended in water at a concentration of 1 mg/ml; a
7mm disc was dipped into the suspension and then placed on the agar
surface; incubation 24-48 hours at 25-37° C.
Experiment [2] has as its system Micrococcus luteus ATCC 9341. In words: Agar-plate disc-diffusion test. Particulars: 1 mg/ml, 7mm disc, 24-48 hours at 25-37° C. The class given is cell-based.
The subject of experiment [3] is Staphylococcus epidermidis EPI1. Nature of the experiment: Standard agar-dilution test (MIC). Format: cell-based. How it is done:
(§1) The results of the antibacterial testing of a representative compound of formula 1, using the standard agar-dilution test, are summarized in Table II. In Table II activity is measured by the minimal inhibitory concentration (MIC), i.e. the lowest concentration of compound which inhibits the growth of the microorganism.

In experiment [4] the test system is Staphylococcus aureus V41. Nature of the experiment: Standard agar-dilution test (MIC). Format: cell-based. To be noted: Staphylococcus aureus V41, penicillin-resistant strain. How it is done:
as §1

In experiment [5] the test system is Streptococcus Group 9960. In words: Standard agar-dilution test (MIC). The class given is cell-based. How it is done: as §1
The subject of experiment [6] is Streptococcus pyogenes C203. Nature of the experiment: Standard agar-dilution test (MIC). The class given is cell-based. How it is done:
as §1

The test system of experiment [7] is Staphylococcus aureus S13E. Nature of the experiment: Standard agar-dilution test (MIC). Format: cell-based. How it is done:
as §1

Experiment [8] has as its system Staphylococcus epidermidis EPI2. Nature of the experiment: Standard agar-dilution test (MIC). Format: cell-based. How it is done: as §1
Experiment [9] deals with Staphylococcus aureus X1.1. Nature of the experiment: Standard agar-dilution test (MIC). Format: cell-based. How it is done:
as §1

In experiment [10] the test system is Streptococcus Group D X66. Nature of the experiment: Standard agar-dilution test (MIC). The class given is cell-based. How it is done:
as §1

The subject of experiment [11] is Staphylococcus aureus X400. In words: Standard agar-dilution test (MIC). The class given is cell-based. To be noted: Staphylococcus aureus X400, methicillin-resistant strain. How it is done: as §1
In experiment [12] the test system is Staphylococcus aureus ATCC 6738P. Nature of the experiment: Agar-plate disc-diffusion test. The class given is cell-based. Particulars: compound suspended in water at 1 mg/ml, 7mm disc, 24-48 hours at 25-37° C.
Experiment [13] deals with Staphylococcus aureus. In words: In vivo activity against experimental bacterial infection. To be noted: mice, subcutaneous, two doses. How it is done:
(§2) The representative A-21978C cyclic peptide of formula 1 has shown in vivo antimicrobial activity against experimental bacterial infections. When two doses of test compound were administered to mice in illustrative infections, the activity observed was measured as an ED50 value [effective dose in mg/kg to protect fifty percent of the test animals: See Warren Wick, et al., J. Bacteriol. 81, 233-235 (1961)].

Experiment [14] has as its system Streptococcus pyogenes. The experiment is described as above. Particulars: mice, two doses. How it is done:
as §2

Setting [15] is: B. subtilis ATCC 6633 grown on minimal nutrient agar.
Where [16] appears, read: Bacillus subtilis ATCC 6633, 24-48 hours at 25-37° C.

Values after ≈ are worked out from the molar mass of the structure shown.

Regarding `CCCCCCCCCCCCOc1ccc(C(=O)N[C@@H](Cc2c[nH]c3ccccc23)C(=O)N[C@H](CC(N)=O)C(=O)N[C@@H](CC(=O)O)C(=O)N[C@@H]2C(=O)NCC(=O)N[C@@H](CCCN)C(=O)N[C@@H](CC(=O)O)C(=O)N[C@H](C)C(=O)N[C@@H](CC(=O)O)C(=O)NCC(=O)N[C@H](CO)C(=O)N[C@@H]([C@H](C)CC(=O)O)C(=O)N[C@@H](CC(=O)c3ccccc3N)C(=O)O[C@@H]2C)cc1` [NTrp --p-(n-Dodecyloxy)benzoyl-A-21978C, NTrp -p-(n-dodecyloxy)benzoyl-A-21978C Nucleus], the “Size of Zone of Inhibition” value in [1] (setting [15]) was 20 mm; in experiment [1] (setting [16]), 13 mm; in experiment [2] it was 18 mm; in [12], 20 mm. Moreover, the “MIC Values” in experiment [3] is 4 µg/mL (≈ 2.28 µM); in experiment [4], 1 µg/mL (≈ 0.57 µM); in experiment [5] it was 1 µg/mL (≈ 0.57 µM); in experiment [6], 0.25 µg/mL (≈ 0.142 µM); in [7], 1 µg/mL (≈ 0.57 µM); in [8] it was 2 µg/mL (≈ 1.14 µM). Also, the “MIC Values” in experiment [9] came out at 1 µg/mL (≈ 0.57 µM); in experiment [10], 2 µg/mL (≈ 1.14 µM); in [11], 2 µg/mL (≈ 1.14 µM). In addition, the “ED50 Values” is 3.35 mg/kg × 2 in experiment [13], more than 200 mg/kg × 2 in experiment [14] (oral) and 0.31 mg/kg × 2 in experiment [14] (subcutaneous).
Consider “NTrp -p-(n-Dodecyloxy)benzoyl-NOrn -t-BOC-A-21978C Nucleus [p-(n-dodecyloxy)benzoyl t-BOC]”, for which the “Size of Zone of Inhibition” value in experiment [1] (setting [15]) came to 22 mm; in experiment [1] (setting [16]), 10 mm; in experiment [2], 15 mm; in experiment [12], 20 mm.

Values taken from patent publication USRE32310E, “Derivatives of A-21978C cyclic peptides” (Eli Lilly and Company, priority 1985, dated 1986).
